In patent US10085937B2, “Nasal drug products and methods of their use” (Adapt Pharma Limited, priority 2014, dated 2018):
Like-named read-outs stand apart in the source and are kept apart here.

Tests used:
[1] = for Lambda z: harmonic mean; for Tmax: median; for λz: geometric mean (CV %)
[2] = Safety of intranasal naloxone: adverse events, nasal irritation, vital signs, ECG (Study 2)
rat = conditions: intravenous; cited from earlier work
[3] = Safety of intranasal naloxone: nasal irritation, vital signs, ECG, clinical laboratory (Study 1); format: in vivo, human
Description: These vital signs and temperature were also measured at screening, clinic intake, one day after each dosing session and at follow-up. […] AEs were recorded from the start of study-drug administration until clinic discharge. […] Clinical laboratory measurements were done prior to the first drug administration and on the day of clinic release.
Statistical Analysis of Adverse Events: AEs were coded using the Medical Dictionary for Regulatory Activities (MedDRA), version 19. Preferred terms and are grouped by system, organ, class (SOC) designation. AEs are presented as a listing including the start date, stop date, severity, relationship, outcome, and duration.

newborn rats = conditions: acute subcutaneous; cited from earlier work
clinical = conditions: human, plasma; for AUC(0-t): AUC0-t; for AUC(0-t) / AUC(0-inf) / Cmax: geometric mean (CV %); for AUC(0-inf): AUC0-∞; for Tmax: Table 13
mouse = conditions: intravenous; cited from earlier work
[4] = for Cmax/D: GLSM, dose adjustment to 0.4 mg; for λz / Frel: mean
[5] = im, 0.4 mg, One Injection 0.4 mg IM
[6] = other: intranasal (IN), 2 mg, One Spray 2% (w/v) IN
[7] = other: intranasal (IN), 4 mg, One Spray 4% (w/v) IN
[8] = other: intranasal, 2 mg, One Spray 2% (w/v) IN
[9] = other: intranasal, 4 mg, One Spray 4% (w/v) IN
[10] = other: intranasal, 4 mg, Two Sprays 2% (w/v) IN
[11] = other: intranasal, 8 mg, Two Sprays 4% (w/v) IN

Compound `C=CCN1CC[C@]23c4c5ccc(O)c4O[C@H]2C(=O)CC[C@@]3(O)[C@H]1C5` [naloxone, 17-allyl-4,5α-epoxy-3,14-dihydroxymorphinan-6-one] has a Lambda z ([1]; 0.4 mg IM, Female) of 0.6140 h⁻¹, a Lambda z ([1]; 0.4 mg IM, Male) of 0.5152 h⁻¹ and a Tmax ([1]; 0.4 mg IM, Male) of 30 min. For the same compound, the Lambda z ([1]; 0.4 mg IM) was 0.5534 h⁻¹, the Lambda z ([1]; One 2% (w/v) IN, Female) was 0.3978 h⁻¹ and the Lambda z ([1]; One 2% (w/v) IN, Male) was 0.3492 h⁻¹. For the same compound, the Lambda z ([1]; One 4% (w/v) IN, Female) was 0.2946 h⁻¹, the Tmax ([1]; One 4% (w/v) IN, Female) was 30 min and the Lambda z ([1]; One 4% (w/v) IN, Male) was 0.3386 h⁻¹. For the same compound, the Tmax ([1]; One 4% (w/v) IN, Male) was 30 min, the λz ([1]; One Injection 0.4 mg IM) was 0.557 (25.9) 1/h and the λz ([1]; One Spray 2% (w/v) IN) was 0.382 (34.9) 1/h. For the same compound, the λz ([1]; One Spray 4% (w/v) IN) was 0.334 (29.5) 1/h, the Lambda z ([1]; Two 2% (w/v) IN, Female) was 0.2796 h⁻¹ and the Lambda z ([1]; Two 2% (w/v) IN, Male) was 0.3122 h⁻¹. The Lambda z ([1]; Two 4% (w/v) IN, Female) was 0.2994 h⁻¹, the Lambda z ([1]; Two 4% (w/v) IN, Male) was 0.3407 h⁻¹ and the λz ([1]; Two Sprays 2% (w/v) IN) was 0.310 (34.5) 1/h. For the same compound, the λz ([1]; Two Sprays 4% (w/v) IN) was 0.330 (32.4) 1/h, the Lambda z ([1]; one spray 2 mg 2% (w/v) IN) was 0.3685 h⁻¹ and the Lambda z ([1]; two sprays 4 mg 2% (w/v) IN) was 0.2973 h⁻¹. The Lambda z ([1]; two sprays 8 mg 4% (w/v) IN) was 0.3217 h⁻¹, the “adverse events: Dizziness” value ([2]; 0.4 mg Intramuscular Dose) was 1 and the “adverse events: Headache” value ([2]; 0.4 mg Intramuscular Dose) was 1. For the same compound, the “adverse events: Nausea” value ([2]; 0.4 mg Intramuscular Dose) was 1, the “Events related to nasal irritation: Edema” value (from here on “Events related … Edema”) ([2]; 2 mg (2% w/v, one spray)) was 2 and the “Events related to nasal irritation: Erythema” value (“Events related … Erythema” for short) ([2]; 2 mg (2% w/v, one spray)) was 4. For the same compound, the “Events related to nasal irritation: Other” value (“Events related … Other” below) ([2]; 2 mg (2% w/v, one spray)) was 1, the “Events related to nasal irritation: Total” value (“Events related … Total” below) ([2]; 2 mg (2% w/v, one spray)) was 7 and the “adverse events: Nasal Pain” value ([2]; 2 mg (2% w/v, one spray)) was 1. For the same compound, the “Events related … Edema” value ([2]; 4 mg (2% w/v, two sprays)) was 0, the “Events related … Erythema” value ([2]; 4 mg (2% w/v, two sprays)) was 1 and the “Events related … Other” value ([2]; 4 mg (2% w/v, two sprays)) was 0. For the same compound, the “Events related … Total” value ([2]; 4 mg (2% w/v, two sprays)) was 1, the “Events related … Edema” value ([2]; 4 mg (4% w/v, one spray)) was 2 and the “Events related … Erythema” value ([2]; 4 mg (4% w/v, one spray)) was 1. For the same compound, the “Events related … Other” value ([2]; 4 mg (4% w/v, one spray)) was 0, the “Events related … Total” value ([2]; 4 mg (4% w/v, one spray)) was 3 and the “Events related … Edema” value ([2]; 8 mg (4% w/v, two sprays)) was 1. For the same compound, the “Events related … Erythema” value ([2]; 8 mg (4% w/v, two sprays)) was 0, the “Events related … Other” value ([2]; 8 mg (4% w/v, two sprays)) was 0 and the “Events related … Total” value ([2]; 8 mg (4% w/v, two sprays)) was 1. The “adverse events: Headache” value ([2]; 8 mg (4% w/v, two sprays)) was 1, the “relation of nasal irritation to dose” value ([2]; IN 2 to 8 mg) was “did not appear to be positively related to the dose” and the QTcF prolongation ([2]; Study 2) was “no evidence of QTcF prolongation”. For the same compound, the “vital signs, ECG, and clinical laboratory parameters” value ([2]; after naloxone administration, Study 2) was “did not reveal any clinically noteworthy changes”, the LD50 (rat) was 109 ± 4 mg/kg and the pharyngeal pain ([3]; 2 mg IN dose) was “One subject experienced mild transient (over 3 min) pharyngeal pain”. The “nasal irritation (erythema, edema, erosion) in the nasal cavity” value ([3]; IN 2 and 4 mg to both nostrils) was “No erythema, edema, erosion, or other sign was observed”, the QTcF prolongation ([3]; Study 1) was “no evidence of QTcF prolongation” and the “vital signs, ECG, and clinical laboratory parameters” value ([3]; after naloxone administration, Study 1) was “did not reveal any clinically noteworthy changes”. For the same compound, the “LD50 (95% CL)” value (newborn rats) was 260 (228-296) mg/kg, the AUC(0-t) (clinical; [5]) was 1.72 ng·h/mL and the AUC(0-inf) (clinical; [5]) was 1.76 ng·h/mL. For the same compound, the Cmax (clinical; [5]) was 0.877 ng/mL, the Tmax (clinical; [5]) was 22.8 min and the AUC(0-t) (clinical; [6]) was 4.51 ng·h/mL. The AUC(0-inf) (clinical; [6]) was 4.56 ng·h/mL, the AUC(0-t) (clinical; [7]) was 7.87 ng·h/mL and the AUC(0-inf) (clinical; [7]) was 7.95 ng·h/mL. It also gave an AUC(0-inf) (clinical; other: intranasal (IN), 8 mg, Two Sprays 4% (w/v) IN) of 15.5 ng·h/mL, a Cmax (clinical; [8]) of 2.92 ng/mL and a Tmax (clinical; [8]) of 19.8 min. The Cmax (clinical; [9]) was 4.83 ng/mL, the Cmax (clinical; [10]) was 6.2 ng/mL and the Tmax (clinical; [9]) was 30 min. For the same compound, the Tmax (clinical; [10]) was 19.8 min, the Cmax (clinical; [11]) was 9.7 ng/mL and the Tmax (clinical; [11]) was 19.8 min. The LD50 (mouse) was 150 ± 5 mg/kg, the Cmax/D ([4]; 0.4 mg IM) was 0.755 ng/mL and the λz ([4]; 0.4 mg IM) was 0.593 h⁻¹. The Frel ([4]; 2 mg IN vs IM) was 0.571, the Cmax/D ([4]; 2 mg IN) was 0.510 ng/mL and the λz ([4]; 2 mg IN) was 0.588 h⁻¹. It also gave a Frel ([4]; 4 mg IN vs IM) of 0.475, a Cmax/D ([4]; 4 mg IN) of 0.466 ng/mL and a λz ([4]; 4 mg IN) of 8.0 h⁻¹.
